Reference: patent US20040022834A1, “Pharmaceutical oxan preparation” (priority 2000, published 2004)
Counter-ions that a name gives are not always drawn. Like-named read-outs stand apart in the source and are kept apart here.

Assays:
[1] = type: in vitro ADME
From the text: These values are sufficiently high to make it possible to aim at the daily administration, from a transdermal patch, of a quantity of efaroxan base or hydrochloride in the mg range.
FIG. 4 represents the quantities of idazoxan base and hydrochloride released ex vivo using animal skins, in the case of aqueous alcoholic solutions according to the invention.

[2] = ex vivo permeation on animal skins after pretreatment with a promoter (reference batch CM586); type: in vitro ADME; settings: ratio of quantity accumulated at 24 h, trial (skin pretreated with promoter) to reference batch CM586; as dexefaroxan base
From the text: FIG. 3 represents the quantities expressed as dexefaroxan base of the accumulated quantities (μg/cm^2); it involves comparing the reference batch CM586 with or without individual pretreatment with promoters.

Row | Compound | quantities accumulated at 24 hours [1] | quantities accumulated at 24 hours ([1]; 24 h, 10 % m/v) | permeation index (PI) [2] | other results
1 | CC[C@]1(C2=NCCN2)Cc2ccccc2O1 [dexefaroxan base] | ~8.5 mg/cm^2 |  |  | 
2 | CC[C@]1(C2=NCCN2)Cc2ccccc2O1 [dexefaroxan hydrochloride] |  | ~1.0 mg/cm^2 |  | 
3 | c1ccc2c(c1)OCC(C1=NCCN1)O2 (stereo not shown) [idazoxan base, 2-(1,4-benzodiosan-2-yl)-2-imidazoline] | ~5 mg/cm^2 |  |  | quantities released at 24 h, base form versus hydrochloride [1]: significantly higher
4 | c1ccc2c(c1)OCC(C1=NCCN1)O2 (stereo not shown) [idazoxan hydrochloride, 2-(1,4-benzodiosan-2-yl)-2-imidazoline] |  | ~0.25 mg/cm^2 |  | 
5 | Mannitan oleate |  |  | 2.4 | 
6 | Sorbitan monooleate |  |  | 2.6 | 
